Measured values reported in publication PMC6600393, “Synthesis and Cytostatic Effect of 3’-deoxy-3’-C-Sulfanylmethyl Nucleoside Derivatives with D-xylo Configuration” (Molecules, 2019).

What was measured:
HaCaT cells [1] = experiment: Time-lapse video-microscopy: mother cell size, HaCaT; type: cell-based, human
Description: Dynamic functional and morphological effects of compound 10 was investigated via time-lapse (1 frame/min) videomicroscopy under standard cell-breeding conditions. Low intensity, near-infrared (NIR) 940 nm illumination was used, for reduced phototoxicity. Parallel experiments were done in the same CO2 incubator, using two custom-built inverted microscope equipped with sensitive charge-coupled device (CCD) sensors. […] Image sequences were processed and quantitatively analyzed using NIH ImageJ open-source software-bundle. Cell size, cellular generation time, and cell growth of HaCaT and SCC cells were analyzed. Time-lapse video-microscopy record about the effect of 10 and DMSO control on HaCaT and SCC cell lines are available in Supplementary Materials. […]
Mother cells size measurement: • Opening the image sequence in 8-bit format. • Stack Deflicker: The Stack Deflicker calculates the average grey value for each frame and normalizes all frames so that they have the same average grey level as a specified frame of the stack. […] If a region of the stack is selected the average frame intensity will be calculated from this region. • Changing the brightness/contrast, if it is neccesary. • Subtrack background: Removes smooth continuous backgrounds from gels and other images. […]

HaCaT cells [2] = experiment: DAPI fluorescent microscopy of nucleus morphology, HaCaT; type: cell-based, human; settings: 17.0 µM, 48 h, vs DMSO control
Description: (§1) In our experiments 4’,6-diamidino-2-phenylindole (DAPI) fluorescent DNA dye has been used for studying the cell nucleus morphology as an indicator of genotoxicity. The HaCaT and SCC cells were treated with DMSO and compound 10, fixed and stained with DAPI, then examined with fluorescent microscopy (Figure 7 and Figure 8).
(§2) For fluorescence staining, cells were breeded in the ibidi microscope slide chamber. The sample preparation process was similar to that of TLS studies, except that after 48 h the samples were fixed with PFA and washed with PBS and left to dry at room temperature overnight. DAPI dye was used for fluorescencnt labbelling of A-T rich regions of DNA.
(§3) Dehydrated slides containing fixated cells were mounted in 35 μL DAPI-Antifade Medium under 24 × […] coverslips. Fluorescence of DAPI (4′,6-diamidino-2-phenylindole) was monitored by fluorescence microscopy (Carl Zeiss Compound Universal Microscope III RS).

HaCaT cells [3] = experiment: Time-lapse video-microscopy: generation time, HaCaT; type: cell-based, human
Description: (§4) Dynamic functional and morphological effects of compound 10 was investigated via time-lapse (1 frame/min) videomicroscopy under standard cell-breeding conditions. Low intensity, near-infrared (NIR) 940 nm illumination was used, for reduced phototoxicity. Parallel experiments were done in the same CO2 incubator, using two custom-built inverted microscope equipped with sensitive charge-coupled device (CCD) sensors. […] Image sequences were processed and quantitatively analyzed using NIH ImageJ open-source software-bundle. Cell size, cellular generation time, and cell growth of HaCaT and SCC cells were analyzed. Time-lapse video-microscopy record about the effect of 10 and DMSO control on HaCaT and SCC cell lines are available in Supplementary Materials.
For the investigation of the effect of compound 10 on cell-cycle, cellular generation times were measured from time-lapse image sequences.
In LTS video-microscopy studies, ~500.000/350.000 starting cell numbers (T-25 cell culture flask) had been used. Cell cultures had been treated with compound 10 using the IC50 concentration corresponding to the SCC VII.
TLS system architecture: Using the TLS system, various parameters had been tested. Control, DMSO control, and IC50 concentration of compound 10 compared to the above. Based on literature data, 1% (v/v) is the amount that is tolerated even without significant change in cells. […]

SCC cells [4] = experiment: Time-lapse video-microscopy: mother cell size, SCC; type: cell-based, mouse
Description: as §4
Each cell line was treated with 17.0 µM solution of compound 10, dissolved in 1% (v/v) DMSO and diluted with cell culture media before application. Then, 1% (v/v) DMSO was used as control. […]
Mother cells size measurement: • Opening the image sequence in 8-bit format. • Stack Deflicker: The Stack Deflicker calculates the average grey value for each frame and normalizes all frames so that they have the same average grey level as a specified frame of the stack. […] If a region of the stack is selected the average frame intensity will be calculated from this region. • Changing the brightness/contrast, if it is neccesary. • Subtrack background: Removes smooth continuous backgrounds from gels and other images. […] A ball of given radius is rolled over the bottom side of this surface; the hull of the volume reachable by the ball is the background to be subtracted. • Treshold: Use this tool to automatically or interactively set lower and upper threshold values, segmenting grayscale images into features of interest and background. • Divided cells were selected on the binary image sequence based on their circularity determined by area/perimeter ratio. • Bigger pre-division mother cells were separated from smaller post-division daughter cells. • Pixel size was calibrated with Burker chamber. • Area calculation from pixel^2 to µm^2.

[5] = system: HaCaT (human keratinocyte) cell line; experiment: MTT cell viability assay on HaCaT cells; type: cell-based; settings: Homo sapiens, HaCaT, 48 h
Description: (§5) For the investigation of the cytotoxic effect of nucleoside analogues we used healthy human keratinocyte (HaCaT) and tumorous squamous carcinoma SCC-VII cell lines. In the experiments, a standard citotoxicity assay, the MTT assay, was used in a 96-well plate. Importantly, different cell numbers were used in the case of the two different cell lines. The HaCaT cells were seeded 10^4/well concentration while the SCC-VII cells were seeded 5000/well concentration on the plate. In both cases the cells were treated with the nucleoside analogues at ~50% confluence.
The HaCaT cell line was derived from human skin, the cells spontaneously transformed in vitro during long time incubation. Cells were cultured in DMEM medium (Biocenter, Szeged, Hungary) containing 10% fetal bovine serum (FBS, Hyclon, Logan, UT) and 1% antibiotic-antimycotic mix (Penicillin–Streptomycin–Neomycin).
(§6) Cell cultures had been kept under the same conditions during the experiments. Cells were stored at 37 °C, 95% humidity, and 5% CO2 in an incubator. During the MTT-assay, different starter cell number was used because of the cell cycle differences; HaCaT was started with 10.000/well meanwhile SCC VII with 5000/well. After passage, 24 h was assured for the cells to the adhesion. Then incubated with the compounds for 48 h. The experiments were performed in 96 well plates.
(§7) For the dilution of different concentrations of nucleoside analogues were prepared with DMSO 1% (v/v) and DMEM / DMEM-F12/Ham’s F12 cell culture medium.
(§8) After three days of incubation in the cell culture flask, cells were trypsinised into single cell suspensions. Aliquots (200 μL) of each cell suspension were placed in wells of 96-well-plates (Biocenter, Szeged, Hungary). Preliminary tests were conducted with cell numbers 5000 (SCC-VII) and 10,000 (HaCaT) per well. We have been tested five concentrations of each nucleoside analogues (20-10-5-2.5-1.25 µg/mL). The nucleoside analogues were dissolved in DMSO (1 v/v%) and DMEM/ DMEM-F12/Ham’s F12 were added to the wells to produce the required concentrations and the cells were similarly incubated for a further 48 h.
(§9) MTT (Sigma Aldrich, Budapest, Hungary) solution (0.5 mg/mL in PBS) 100 µL was added to each well. The plates were incubated for 1–2 h at 37 ^◦C, the wells aspirated, and MTT formazan extracted with 100 µL of DMSO aided by gentle agitation on a shaker. After 10 min at room temperature, the absorbances were read at 570 nm by an automatic plate reader (WALLAC Victor 2 1420 spectrophotometer), the instrument having been blanked beforehand on a row to which cells had not been added. Percentage viability (respiratory competence) of the population of cells in each well was expressed as: (Absorbance of treated cells/Absorbance of control cells) × 100. IC50 values of the nucleoside analogues were determined by Graphpad.

[6] = system: SCC-VII (mouse squamous carcinoma) cell line; experiment: MTT cell viability assay on SCC-VII cells; type: cell-based
Description: as §5
SCC-VII is a carcinoma tumor that originally arose in the abdominal wall of C3H mice in Dr. Herman Suit’s laboratory at Harvard University, Boston, Massachusetts. SCC VII cells were grown in Dulbecco’s Modified Eagle’s Medium Nutrient Mixture (DMEM-HAM’S F12) (Sigma-Aldrich) supplemented with 2 mM L-glutamine, 23 mM NaHCO3, 100 U/mL penicillin, 100 U/mL streptomycin 1% non-essential amino acids and 10% fetal bovine serum.
as §6, §7, §8, §9

SCC cells [7] = experiment: DAPI fluorescent microscopy of nucleus morphology, SCC; type: cell-based, mouse; settings: 17.0 µM, 48 h, vs DMSO control
Description: as §1, §2, §3

SCC = system: SCC; design: method as in PMID 20947470; settings: positive control; ref [36]; cited from earlier work

Compound | mother cell size-reduction vs. DMSO (HaCaT cells [1]; 17.0 µM) [%] | Treated Cells Size (mother cells) (HaCaT cells [1]; 17.0 µM compound 10, n = 15) [µm^2] | nucleus morphology (DAPI) (HaCaT cells [2]) | Treated/DMSO Difference (generation time) (HaCaT cells [3]; 17.0 µM) [%] | Treated Cells Gen. Time (HaCaT cells [3]; 17.0 µM compound 10, n = 15) [h] | overall size change difference between the two cell lines (SCC cells [4]; HaCaT vs SCC mother cells, 17.0 µM) | Treated Cells Size (mother cells) (SCC cells [4]; SCC, 17.0 µM compound 10, n = 15) [µm^2] | Treated/DMSO Difference (mother cell size) (SCC cells [4]; SCC, 17.0 µM, (treated cells size/DMSO control cell size)*100-100) [%] | IC50 [5] [µM] | SI (selectivity index) ([6]; HaCaT IC50/SCC IC50) | IC50 ([6]; Mus musculus, 48 h) [µM] | nucleus morphology (DAPI), genotoxicity (SCC cells [7]) | IC50 (SCC) [µM]
CCCCSC[C@@H]1[C@@H](O[Si](C)(C)C(C)(C)C)[C@H](n2cc(C)c(=O)[nH]c2=O)O[C@@H]1CO[Si](C)(C)C(C)(C)C [Compound 10, 1-[3’-Deoxy-3’-C-(n-butylsulfanylmethyl)-2’,5’-di-O-(tert-butyldimethylsilyl)-β-D-xylofuranosyl]-thymine] | 9 | 21.60 ± 1.93 | no apparent difference | 20.8 | 21.67 ± 1.01 | ~ 21% | 21.44 ± 1.42 | 12.8 | 27.9 ± 1.85 | 1.64 | 17 ± 1.55 | genotoxic effect | 
O=c1[nH]cc(F)c(=O)[nH]1 [Compound 5-FU, 5-fluorouracil] |  |  |  |  |  |  |  |  |  |  |  |  | 60.7 ± 8.45
